The conditions of data set [1]: 293.15 K; 101.33 kPa; Liquid; Pycnometric method.
Data set [2] in a line: refractive index (Na D-line) (dimensionless). The settings on record: 293.15 K; 101.33 kPa; Liquid; Standard Abbe refractometry.

Numbers after ± are expanded uncertainties.

Consider `CO` [methanol], for which the mass density in data set [1] is on record as 791.7 ± 0.5 kg/m3. The refractive index in data set [2] is reported as 1.3291 ± 0.0005.
Turning to `CCCO` [propan-1-ol], in data set [1], the mass density is given as 803.8 ± 0.5 kg/m3. In addition, the refractive index in data set [2] worked out at 1.3853 ± 0.0005.
`CCCCO` [butan-1-ol]: in data set [1], the mass density is 810.3 ± 0.5 kg/m3. For the same compound, in data set [2], the refractive index worked out at 1.3997 ± 0.0005.
For `CCCCCO` [pentan-1-ol], in data set [1], the mass density is on record as 812.9 ± 0.5 kg/m3. Besides, the refractive index in data set [2] was found to be 1.4092 ± 0.0005.
Taken in the same sequence, the figures for `CCCCCCO` [hexan-1-ol] were 813.8 ± 0.5 kg/m3 and 1.4175 ± 0.0005.
Consider `CCC(C)O` (centres undefined) [butan-2-ol], for which, in data set [1], the mass density amounted to 802.6 ± 0.5 kg/m3. In addition, in data set [2], the refractive index amounted to 1.3955 ± 0.0005.
As for `CC(C)O` [propan-2-ol], the mass density in data set [1] was found to be 784.9 ± 0.5 kg/m3. Moreover, the refractive index in data set [2] is recorded as 1.378 ± 0.0005.

Values taken from the NIST ThermoML archive (doi:10.1021/je800520w).
